Experimental data taken from paper PMC8443589, “Modelling human liver fibrosis in the context of non-alcoholic steatohepatitis using a microphysiological system” (Communications Biology, 2021).

What was measured:
[1] = tested on: liver MPS NASH model (PHH, KC and HSC co-cultures, high fat); experiment: Secreted cytokine/biomarker profile (Luminex, ELISA) of liver MPS NASH model dosed with OCA or ELF; type: cell-based, human
Procedure: Fig. 3 Obeticholic acid and Elafibranor both modulate inflammatory and fibrosis phenotype in liver MPS NASH model and phenotype can additionally be reversed with dietary changes. PHH, KC and HSC co-cultures were cultured in the MPS platform under high fat conditions and dosed with varying concentrations of Obeticholic acid (OCA) and Elafibranor (ELF) QD or vehicle control (control) for 10 days, following an initial 4-day pre-culture phase. a The secreted cytokine profile from liver microtissues was compared by Luminex to determine the effects of each compound on the inflammatory profile of the liver with samples analysed at day 8 and 14 of the culture. Data were normalised by Z-transformation to allow comparison of all analytes and presented as a heatmap. b The expression of fibrosis-associated genes was analysed in total RNA from control, OCA and ELF treated liver microtissues (highest concentration for each compound) using Human Fibrosis RT2 Profiler PCR Arrays. Gene expression changes are expressed as a fold change over control. c Liver microtissues were stained for collagen-type I, α-SMA, nuclei (DAPI - blue), phalloidin (green) and imaged by confocal microscopy. Representative images are shown and scale bars 200 µm. d Staining of microtissue was quantified by measuring total fluorescence intensity throughout individual microtissues, each data point represents an average of all the microtissues imaged within an MPS scaffold (min 8, max 20 microtissues). e PHH, KC and HSC co-cultures were cultured in the MPS platform under high fat or lean conditions for 30 days. Cultures either remained in the same type of media throughout or were switched at day 15 from fat media to lean media (Fat -> Lean). Cell culture medium samples were analysed for the presence of IL-6, f MCP-1, g TIMP-1, which were measured by ELISA. h Microtissues were stained with Oil-Red O to determine fat loading during culture period, total stain was quantified by absorbance at 510 nm. All datapoints shown, either as box-whisker plots highlighting mean and min-max or with error bars highlighting means ± SD. All data from a minimum of three independent cultures; statistical comparisons made to control samples unless other comparison shown.
Soluble biomarkers in cell culture medium from the MPS were analysed by enzyme-linked immunosorbent assay (ELISA); IL-6 was measured by Human IL-6 DuoSet ELISA (R&D Systems); MCP-1 was measured by Human CCL2/MCP-1 DuoSet ELISA (R&D Systems); pro-collagen 1 was measured by Human Pro-Collagen I α1 DuoSet (R&D Systems); TIMP-1 was measured by Human TIMP-1 Quantikine ELISA Kit (R&D Systems); Fibronectin was measured by Human Fibronectin DuoSet ELISA (R&D Systems); YKL-40 was measured by Human Chitinase 3-like 1 Quantikine ELISA Kit (R&D Systems); Albumin secretion was measured by Human Albumin AssayMax™ ELISA kit (Assay Pro, St. Charles, MO). For all assays, the manufacturer’s protocol was followed.
Cytokine profiles in cell culture medium samples were also analysed by Luminex array for determination of 38 analytes in total, consisting of cytokines, chemokines, and growth factors using the MILLIPLEX MAP Human Cytokine/Chemokine Magnetic Bead Panel - Premixed 38 Plex (Merck Millipore, USA).
Liver microtissues were cultured for 4 days in HEP-FAT medium, before dosing with obeticholic acid or elafibranor. Both compounds were dissolved in DMSO, diluted in cell culture medium (final DMSO concentration ≤1%) and added to microtissues during a full medium change every two days and in addition on the intervening days compounds were spiked into the media to increase drug concentration back to desired concentrations. Cultures were maintained in the presence of the compound, for a total of 10 days in the presence or absence of TGFβ.

human NASH patients = conditions: cited from earlier work

For `CSc1ccc(C(=O)/C=C/c2cc(C)c(OC(C)(C)C(=O)O)c(C)c2)cc1` [Elafibranor], the “inflammatory cytokines, including CXCL1, IL1-Rα, IL-6 and MCP-1” value ([1]; 10 days of compound treatment) was “concentration-dependent decrease”, the “CXCL1 fold change in production compared to control” value (“CXCL1 fold change in production” below) ([1]; ELF 1.3 µM QD, D8) was 0.8888 and the “CXCL10 fold change in production compared to control” value (“CXCL10 fold change in production” below) ([1]; ELF 1.3 µM QD, D8) was 0.9847. For the same compound, the “FN1 fold change in production compared to control” value (“FN1 fold change in production” for short) ([1]; ELF 1.3 µM QD, D8) was 0.9865, the “IL-1RA fold change in production compared to control” value (shortened to “IL-1RA fold change in production”) ([1]; ELF 1.3 µM QD, D8) was 0.559 and the “IL-4 fold change in production compared to control” value (shortened to “IL-4 fold change in production”) ([1]; ELF 1.3 µM QD, D8) was 1.264. The “IL-6 fold change in production compared to control” value (“IL-6 fold change in production” for short) ([1]; ELF 1.3 µM QD, D8) was 0.3707, the “IL-8 fold change in production compared to control” value (“IL-8 fold change in production” below) ([1]; ELF 1.3 µM QD, D8) was 1.017 and the “MCP-1 fold change in production compared to control” value (shortened to “MCP-1 fold change in production”) ([1]; ELF 1.3 µM QD, D8) was 1.109. For the same compound, the “MIP-1a fold change in production compared to control” value (from here on “MIP-1a fold change in production”) ([1]; ELF 1.3 µM QD, D8) was 0.8137, the “MIP-1b fold change in production compared to control” value (from here on “MIP-1b fold change in production”) ([1]; ELF 1.3 µM QD, D8) was 0.885 and the “TIMP-1 fold change in production compared to control” value (from here on “TIMP-1 fold change in production”) ([1]; ELF 1.3 µM QD, D8) was 0.8634. The “VEGF fold change in production compared to control” value (from here on “VEGF fold change in production”) ([1]; ELF 1.3 µM QD, D8) was 0.3678, the “CXCL1 fold change in production” value ([1]; ELF 1.3 µM QD, D14) was 0.5791 and the “CXCL10 fold change in production” value ([1]; ELF 1.3 µM QD, D14) was 0.6755. The “FN1 fold change in production” value ([1]; ELF 1.3 µM QD, D14) was 1.109, the “IL-1RA fold change in production” value ([1]; ELF 1.3 µM QD, D14) was 0.3482 and the “IL-4 fold change in production” value ([1]; ELF 1.3 µM QD, D14) was 0.8813. The “IL-6 fold change in production” value ([1]; ELF 1.3 µM QD, D14) was 0.3647, the “IL-8 fold change in production” value ([1]; ELF 1.3 µM QD, D14) was 0.625 and the “MCP-1 fold change in production” value ([1]; ELF 1.3 µM QD, D14) was 0.9408. The “MIP-1a fold change in production” value ([1]; ELF 1.3 µM QD, D14) was 0.8725, the “MIP-1b fold change in production” value ([1]; ELF 1.3 µM QD, D14) was 1.297 and the “TIMP-1 fold change in production” value ([1]; ELF 1.3 µM QD, D14) was 0.9244. The “VEGF fold change in production” value ([1]; ELF 1.3 µM QD, D14) was 0.5658, the “CXCL1 fold change in production” value ([1]; ELF 13 µM QD, D8) was 0.7659 and the “CXCL10 fold change in production” value ([1]; ELF 13 µM QD, D8) was 0.8228. The “FN1 fold change in production” value ([1]; ELF 13 µM QD, D8) was 0.9502, the “IL-1RA fold change in production” value ([1]; ELF 13 µM QD, D8) was 0.4867 and the “IL-4 fold change in production” value ([1]; ELF 13 µM QD, D8) was 1.05. The “IL-6 fold change in production” value ([1]; ELF 13 µM QD, D8) was 0.3808, the “IL-8 fold change in production” value ([1]; ELF 13 µM QD, D8) was 0.9446 and the “MCP-1 fold change in production” value ([1]; ELF 13 µM QD, D8) was 0.8534. The “MIP-1a fold change in production” value ([1]; ELF 13 µM QD, D8) was 0.3878, the “MIP-1b fold change in production” value ([1]; ELF 13 µM QD, D8) was 0.4913 and the “TIMP-1 fold change in production” value ([1]; ELF 13 µM QD, D8) was 0.6879. The “VEGF fold change in production” value ([1]; ELF 13 µM QD, D8) was 0.494, the “CXCL1 fold change in production” value ([1]; ELF 13 µM QD, D14) was 0.5325 and the “CXCL10 fold change in production” value ([1]; ELF 13 µM QD, D14) was 0.6314. For the same compound, the “FN1 fold change in production” value ([1]; ELF 13 µM QD, D14) was 0.9442, the “IL-1RA fold change in production” value ([1]; ELF 13 µM QD, D14) was 0.3167 and the “IL-4 fold change in production” value ([1]; ELF 13 µM QD, D14) was 1.0405. For the same compound, the “IL-6 fold change in production” value ([1]; ELF 13 µM QD, D14) was 0.4596, the “IL-8 fold change in production” value ([1]; ELF 13 µM QD, D14) was 0.6408 and the “MCP-1 fold change in production” value ([1]; ELF 13 µM QD, D14) was 0.5. The “MIP-1a fold change in production” value ([1]; ELF 13 µM QD, D14) was 0.4932, the “MIP-1b fold change in production” value ([1]; ELF 13 µM QD, D14) was 0.6533 and the “TIMP-1 fold change in production” value ([1]; ELF 13 µM QD, D14) was 0.6384. For the same compound, the “VEGF fold change in production” value ([1]; ELF 13 µM QD, D14) was 1.282, the “CXCL1 fold change in production” value ([1]; ELF 65 µM QD, D8) was 0.4476 and the “CXCL10 fold change in production” value ([1]; ELF 65 µM QD, D8) was 0.3212. For the same compound, the “FN1 fold change in production” value ([1]; ELF 65 µM QD, D8) was 0.8989, the “IL-1RA fold change in production” value ([1]; ELF 65 µM QD, D8) was 0.1707 and the “IL-4 fold change in production” value ([1]; ELF 65 µM QD, D8) was 0.5412. For the same compound, the “IL-6 fold change in production” value ([1]; ELF 65 µM QD, D8) was 0.2914, the “IL-8 fold change in production” value ([1]; ELF 65 µM QD, D8) was 0.5667 and the “MCP-1 fold change in production” value ([1]; ELF 65 µM QD, D8) was 0.402. For the same compound, the “MIP-1a fold change in production” value ([1]; ELF 65 µM QD, D8) was 0.2899, the “MIP-1b fold change in production” value ([1]; ELF 65 µM QD, D8) was 0.5458 and the “TIMP-1 fold change in production” value ([1]; ELF 65 µM QD, D8) was 0.784. The “VEGF fold change in production” value ([1]; ELF 65 µM QD, D8) was 0.6076, the “CXCL1 fold change in production” value ([1]; ELF 65 µM QD, D14) was 0.3166 and the “CXCL10 fold change in production” value ([1]; ELF 65 µM QD, D14) was 0.3403. The “FN1 fold change in production” value ([1]; ELF 65 µM QD, D14) was 0.7375, the “IL-1RA fold change in production” value ([1]; ELF 65 µM QD, D14) was 0.07012 and the “IL-4 fold change in production” value ([1]; ELF 65 µM QD, D14) was 0.3173. The “IL-6 fold change in production” value ([1]; ELF 65 µM QD, D14) was 0.09996, the “IL-8 fold change in production” value ([1]; ELF 65 µM QD, D14) was 0.4914 and the “MCP-1 fold change in production” value ([1]; ELF 65 µM QD, D14) was 0.1355. The “MIP-1a fold change in production” value ([1]; ELF 65 µM QD, D14) was 0.3265, the “MIP-1b fold change in production” value ([1]; ELF 65 µM QD, D14) was 0.1355 and the “TIMP-1 fold change in production” value ([1]; ELF 65 µM QD, D14) was 0.5288. For the same compound, the “VEGF fold change in production” value ([1]; ELF 65 µM QD, D14) was 1.5699, the “NASH resolution, post-hoc analysis of the GOLDEN-505 phase 2b trial” value (human NASH patients; 120 mg) was “significant effect on NASH resolution” and the “NASH resolution and fibrosis improvement in phase 3 trial” value (human NASH patients; 16-month interim analysis) was “did not reach statistical significance”.
